Assays:
Type in all cases: functional
UO-31 = test: Growth inhibition of human UO31 cells assessed as cell growth at 10 uM incubated for 48 hrs by sulforhodamine B assay relative to control; conditions: UO-31, 48 h, read-out: Activity
RXF 393 = test: Growth inhibition of human RXF393 cells assessed as cell growth at 10 uM incubated for 48 hrs by sulforhodamine B assay relative to control; conditions: RXF 393, 48 h, read-out: Activity
NCI-H23 = test: Growth inhibition of human NCI-H23 cells assessed as cell growth at 10 uM incubated for 48 hrs by sulforhodamine B assay relative to control; conditions: NCI-H23, 48 h, read-out: Activity
CAKI-1 = test: Growth inhibition of human Caki1 cells assessed as cell growth at 10 uM incubated for 48 hrs by sulforhodamine B assay relative to control; conditions: CAKI-1, 48 h, read-out: Activity
SK-MEL-28 = test: Growth inhibition of human SK-MEL-28 cells assessed as cell growth at 10 uM incubated for 48 hrs by sulforhodamine B assay relative to control; conditions: SK-MEL-28, 48 h, read-out: Activity
OVCAR-5 = test: Growth inhibition of human OVCAR5 cells assessed as cell growth at 10 uM incubated for 48 hrs by sulforhodamine B assay relative to control; conditions: OVCAR-5, 48 h, read-out: Activity
EKVX = test: Growth inhibition of human EKVX cells assessed as cell growth at 10 uM incubated for 48 hrs by sulforhodamine B assay relative to control; conditions: read-out: Activity
OVCAR-4 = test: Growth inhibition of human OVCAR4 cells assessed as cell growth at 10 uM incubated for 48 hrs by sulforhodamine B assay relative to control; conditions: OVCAR-4, 48 h, read-out: Activity
SF-539 = test: Growth inhibition of human SF539 cells assessed as cell growth at 10 uM incubated for 48 hrs by sulforhodamine B assay relative to control; conditions: SF-539, 48 h, read-out: Activity
T47D = test: Growth inhibition of human T47D cells assessed as cell growth at 10 uM incubated for 48 hrs by sulforhodamine B assay relative to control; conditions: read-out: Activity
HOP-62 = test: Growth inhibition of human HOP62 cells assessed as cell growth at 10 uM incubated for 48 hrs by sulforhodamine B assay relative to control; conditions: HOP-62, 48 h, read-out: Activity
MDA-MB-435 = test: Growth inhibition of human MDA-MB-435 cells assessed as cell growth at 10 uM incubated for 48 hrs by sulforhodamine B assay relative to control; conditions: MDA-MB-435, 48 h, read-out: Activity
786-0 = test: Growth inhibition of human 786-0 cells assessed as cell growth at 10 uM incubated for 48 hrs by sulforhodamine B assay relative to control; conditions: 786-0, 48 h, read-out: Activity
MCF7 = test: Growth inhibition of human MCF7 cells assessed as cell growth at 10 uM incubated for 48 hrs by sulforhodamine B assay relative to control; conditions: MCF7, 48 h, read-out: Activity
HCT-15 = test: Growth inhibition of human HCT15 cells assessed as cell growth at 10 uM incubated for 48 hrs by sulforhodamine B assay relative to control; conditions: HCT-15, 48 h, read-out: Activity
COLO 205 = test: Growth inhibition of human COLO205 cells assessed as cell growth at 10 uM incubated for 48 hrs by sulforhodamine B assay relative to control; conditions: COLO 205, 48 h, read-out: Activity
A549 = test: Growth inhibition of human A549/ATCC cells assessed as cell growth at 10 uM incubated for 48 hrs by sulforhodamine B assay relative to control; conditions: A549, 48 h, read-out: Activity
K562 = test: Growth inhibition of human K562 cells assessed as cell growth at 10 uM incubated for 48 hrs by sulforhodamine B assay relative to control; conditions: K562, 48 h, read-out: Activity
NCI/ADR-RES = test: Growth inhibition of human NCI/ADR-RES cells assessed as cell growth at 10 uM incubated for 48 hrs by sulforhodamine B assay relative to control; conditions: read-out: Activity
SR = test: Growth inhibition of human SR cells assessed as cell growth at 10 uM incubated for 48 hrs by sulforhodamine B assay relative to control; conditions: read-out: Activity
PC-3 = test: Growth inhibition of human PC3 cells assessed as cell growth at 10 uM incubated for 48 hrs by sulforhodamine B assay relative to control; conditions: PC-3, 48 h, read-out: Activity
SW-620 = test: Growth inhibition of human SW620 cells assessed as cell growth at 10 uM incubated for 48 hrs by sulforhodamine B assay relative to control; conditions: SW-620, 48 h, read-out: Activity
SK-MEL-5 = test: Growth inhibition of human SK-MEL-5 cells assessed as cell growth at 10 uM incubated for 48 hrs by sulforhodamine B assay relative to control; conditions: SK-MEL-5, 48 h, read-out: Activity
RPMI-8226 = test: Growth inhibition of human RPMI8226 cells assessed as cell growth at 10 uM incubated for 48 hrs by sulforhodamine B assay relative to control; conditions: RPMI-8226, 48 h, read-out: Activity
SF-268 = test: Growth inhibition of human SF268 cells assessed as cell growth at 10 uM incubated for 48 hrs by sulforhodamine B assay relative to control; conditions: SF-268, 48 h, read-out: Activity
MOLT-4 = test: Growth inhibition of human MOLT4 cells assessed as cell growth at 10 uM incubated for 48 hrs by sulforhodamine B assay relative to control; conditions: MOLT-4, 48 h, read-out: Activity
NCI-H522 = test: Growth inhibition of human NCI-H522 cells assessed as cell growth at 10 uM incubated for 48 hrs by sulforhodamine B assay relative to control; conditions: NCI-H522, 48 h, read-out: Activity
Malme-3M = test: Growth inhibition of human MALME-3M cells assessed as cell growth at 10 uM incubated for 48 hrs by sulforhodamine B assay relative to control; conditions: read-out: Activity
SNB-19 = test: Growth inhibition of human SNB19 cells assessed as cell growth at 10 uM incubated for 48 hrs by sulforhodamine B assay relative to control; conditions: SNB-19, 48 h, read-out: Activity
LOX IMVI = test: Growth inhibition of human LOXIMVI cells assessed as cell growth at 10 uM incubated for 48 hrs by sulforhodamine B assay relative to control; conditions: read-out: Activity
SF-295 = test: Growth inhibition of human SF295 cells assessed as cell growth at 10 uM incubated for 48 hrs by sulforhodamine B assay relative to control; conditions: SF-295, 48 h, read-out: Activity
OVCAR-3 = test: Growth inhibition of human OVCAR3 cells assessed as cell growth at 10 uM incubated for 48 hrs by sulforhodamine B assay relative to control; conditions: OVCAR-3, 48 h, read-out: Activity
CCRF-CEM = test: Growth inhibition of human CCRF-CEM cells assessed as cell growth at 10 uM incubated for 48 hrs by sulforhodamine B assay relative to control; conditions: read-out: Activity

## CCOC(=O)c1c(C)oc2ncnc(Nc3ccc(F)c(Cl)c3)c12
UO-31
  growth at 10 µM: 88.5%
RXF 393
  growth at 10 µM: 101%
NCI-H23
  growth at 10 µM: 88%
CAKI-1
  growth at 10 µM: 106%
SK-MEL-28
  growth at 10 µM: 110%
OVCAR-5
  growth at 10 µM: 112%
EKVX
  growth at 10 µM: 108%
OVCAR-4
  growth at 10 µM: 118%
SF-539
  growth at 10 µM: 104%
T47D
  growth at 10 µM: 83.8%
HOP-62
  growth at 10 µM: 101%
MDA-MB-435
  growth at 10 µM: 114%
786-0
  growth at 10 µM: 104%
MCF7
  growth at 10 µM: 104%
HCT-15
  growth at 10 µM: 112%
COLO 205
  growth at 10 µM: 110%
A549
  growth at 10 µM: 86.9%
K562
  growth at 10 µM: 93.8%
NCI/ADR-RES
  growth at 10 µM: 107%
SR
  growth at 10 µM: 96.8%
PC-3
  growth at 10 µM: 85.6%
SW-620
  growth at 10 µM: 101%
SK-MEL-5
  growth at 10 µM: 94.5%
RPMI-8226
  growth at 10 µM: 101%
SF-268
  growth at 10 µM: 97.6%
MOLT-4
  growth at 10 µM: 99.2%
NCI-H522
  growth at 10 µM: 74.6%
Malme-3M
  growth at 10 µM: 114%
SNB-19
  growth at 10 µM: 100%
LOX IMVI
  growth at 10 µM: 103%
SF-295
  growth at 10 µM: 97%
OVCAR-3
  growth at 10 µM: 116%

## CCOC(=O)c1c(C)oc2ncnc(Nc3ccc(F)cc3)c12
UO-31
  growth at 10 µM: 92.4%
RXF 393
  growth at 10 µM: 99.8%
NCI-H23
  growth at 10 µM: 91.9%
CAKI-1
  growth at 10 µM: 97.9%
SK-MEL-28
  growth at 10 µM: 97.5%
OVCAR-5
  growth at 10 µM: 91.4%
CCRF-CEM
  growth at 10 µM: 31.3%
OVCAR-4
  growth at 10 µM: 99.1%
SF-539
  growth at 10 µM: 93.6%
T47D
  growth at 10 µM: 99.6%
HOP-62
  growth at 10 µM: 101%
MDA-MB-435
  growth at 10 µM: 101%
786-0
  growth at 10 µM: 93.1%
COLO 205
  growth at 10 µM: 102%
A549
  growth at 10 µM: 99.4%
NCI/ADR-RES
  growth at 10 µM: 101%
PC-3
  growth at 10 µM: 111%
SW-620
  growth at 10 µM: 94.9%
SK-MEL-5
  growth at 10 µM: 102%
RPMI-8226
  growth at 10 µM: 103%
SF-268
  growth at 10 µM: 98.5%
NCI-H522
  growth at 10 µM: 92.9%
Malme-3M
  growth at 10 µM: 95.4%
SNB-19
  growth at 10 µM: 91.4%
LOX IMVI
  growth at 10 µM: 99.5%
OVCAR-3
  growth at 10 µM: 104%

## Cc1oc2ncnc(Nc3cccc(F)c3)c2c1C(=O)NCCO
UO-31
  growth at 10 µM: 96.5%
RXF 393
  growth at 10 µM: 109%
NCI-H23
  growth at 10 µM: 99.6%
CAKI-1
  growth at 10 µM: 90.5%
SK-MEL-28
  growth at 10 µM: 104%
OVCAR-5
  growth at 10 µM: 100%
CCRF-CEM
  growth at 10 µM: 117%
OVCAR-4
  growth at 10 µM: 108%
SF-539
  growth at 10 µM: 90.9%
T47D
  growth at 10 µM: 95.4%
HOP-62
  growth at 10 µM: 97.4%
MDA-MB-435
  growth at 10 µM: 108%
786-0
  growth at 10 µM: 93%
COLO 205
  growth at 10 µM: 111%
A549
  growth at 10 µM: 91%
NCI/ADR-RES
  growth at 10 µM: 114%
PC-3
  growth at 10 µM: 111%
SW-620
  growth at 10 µM: 103%
SK-MEL-5
  growth at 10 µM: 102%
RPMI-8226
  growth at 10 µM: 106%
SF-268
  growth at 10 µM: 101%
NCI-H522
  growth at 10 µM: 88.4%
Malme-3M
  growth at 10 µM: 118%
SNB-19
  growth at 10 µM: 104%
LOX IMVI
  growth at 10 µM: 100%
OVCAR-3
  growth at 10 µM: 107%

Source: ChEMBL document CHEMBL4251615, “Discovery of anilino-furo[2,3-d]pyrimidine derivatives as dual inhibitors of EGFR/HER2 tyrosine kinase and their anticancer activity” (Eur J Med Chem, 2018)
